Test results reported in patent publication US11865129B2, “Application of anemoside B4 in preparation of a drug for treatment or prevention of psoriasis” (GUANGXI XINHAI PHARMACEUTICAL TECHNOLOGY CO., LTD., priority 2021, dated 2024).

How the values were obtained:
Type in all cases: in vivo, BALB/c male mice
spleen = experiment: Spleen coefficient, psoriasis model mice; details: 12 days, compared with model control group
Method: (§1) A shaving area on the back of the mice in each group is 2.5 cm×3 cm, and the vellus is removed with mild depilatory cream. The mice of each group except the blank control group are modeled by administrating 62.5 mg 5% imiquimod cream on the shaving area until the skin is thickened and has erythema and silver scales for modeling completely. During the model establishment, 5% imiquimod cream is administrated once a day, and continuously administrated for 14 days. On the third day, the model establishment is continued and drugs are administered at the same time, wherein the mice in the AC intragastric administration group (8 mg/kg), the anemoside B4 intragastric (i.g.) administration group (5 mg/kg), the anemoside B4 intragastric administration group (10 mg/kg), and the anemoside B4 intragastric administration group (20 mg/kg) are administrated once a day, and continuously administrated for 12 days. […] The mice in the blank control group and the model control group are applied 62.5 mg Vaseline to the skin lesions once a day, and continuously applied for 12 days. The weight of the mice is recorded for counting the weight change of the mice. After blood collection of the mice in each group of the first animal group, the mice are killed by dislocation of cervical vertebra, quickly separated the spleen and weighed to obtain the wet weight of the spleen, recording and calculating the spleen coefficient, wherein the spleen coefficient (%)=(spleen wet weight/body weight)×100%.

IL-6 = IL-6 level in skin tissue, psoriasis model mice; details: 12 days, compared with model control group
Method: A shaving area on the back of the mice in each group is 2.5 cm×3 cm, and the vellus is removed with mild depilatory cream. The mice of each group except the blank control group are modeled by administrating 62.5 mg 5% imiquimod cream on the shaving area until the skin is thickened and has erythema and silver scales for modeling completely. During the model establishment, 5% imiquimod cream is administrated once a day, and continuously administrated for 14 days. On the third day, the model establishment is continued and drugs are administered at the same time, wherein the mice in the AC intragastric administration group (8 mg/kg), the anemoside B4 intragastric (i.g.) administration group (5 mg/kg), the anemoside B4 intragastric administration group (10 mg/kg), and the anemoside B4 intragastric administration group (20 mg/kg) are administrated once a day, and continuously administrated for 12 days. […] The mice in the blank control group and the model control group are applied 62.5 mg Vaseline to the skin lesions once a day, and continuously applied for 12 days. The weight of the mice is recorded for counting the weight change of the mice. 100 mg skin tissue of the mice in each group of the first animal group are precisely weighed, added 0.9 mL ice normal saline, homogenized with the tissue grinder, and centrifuged at 4° C. and 3000 rpm for 10 min. The supernatant is collected, and IL-12, IL-17, IL-6 and IL-1β level in the skin tissue are measured by kits according to the procedures of specification.

psoriasis skin lesions = experiment: Histopathological observation of skin (HE staining), psoriasis model mice; details: 12 days
Method: as §1, with “vertebra,” for “vertebra, quickly”, “skin in the skin lesions,” for “spleen”, “removed subcutaneous fat. Taking a part, fixing it with 4% paraformaldehyde, embedding, obtaining section, dying with hematoxylin and eosin (HE), and observing histopathological changes” for “weighed to obtain the wet weight”, “skin under a light microscope.” for “spleen, recording and calculating the spleen coefficient, wherein the spleen coefficient (%)=(spleen wet weight/body weight)×100%.”

[1] = intragastric 5 mg/kg once a day
[2] = intragastric 10 mg/kg once a day
[3] = intragastric 20 mg/kg once a day

## C=C(C)[C@@H]1CC[C@]2(C(=O)O[C@@H]3O[C@H](CO[C@@H]4O[C@H](CO)[C@@H](O[C@@H]5O[C@@H](C)[C@H](O)[C@@H](O)[C@H]5O)[C@H](O)[C@H]4O)[C@@H](O)[C@H](O)[C@H]3O)CC[C@]3(C)[C@H](CC[C@@H]4[C@@]5(C)CC[C@H](O[C@@H]6OC[C@H](O)[C@H](O)[C@H]6O[C@@H]6O[C@@H](C)[C@H](O)[C@@H](O)[C@H]6O)[C@@](C)(CO)[C@@H]5CC[C@]43C)[C@H]12 [anemoside B4]
spleen; [1]
  enlargement of the spleen: significantly relieved
  spleen coefficient: significantly decreased
spleen; [2]
  enlargement of the spleen: significantly relieved
  spleen coefficient: significantly decreased
spleen; [3]
  enlargement of the spleen: significantly relieved
  spleen coefficient: significantly decreased
IL-6; [1]
  level of IL-6 in the skin tissue: significantly reduced
IL-6; [2]
  level of IL-6 in the skin tissue: significantly reduced
IL-6; [3]
  level of IL-6 in the skin tissue: significantly reduced
Psoriasis skin lesions; [1]
  psoriasis skin lesions, HE staining of skin tissue: significantly improved
Psoriasis skin lesions; [2]
  psoriasis skin lesions, HE staining of skin tissue: significantly improved
Psoriasis skin lesions; [3]
  psoriasis skin lesions, HE staining of skin tissue: significantly improved
